The target in assay [1] is CK1δ. On the set-up: method as in PMID 21336281. To be noted: cited from earlier work.
For a further assay, the target named is T1, CK1δ (aa 1-294) (Homo sapiens, UniProt P48730).
T1 construct: Compounds were evaluated towards CK1δ (aa 1-294, Merck Millipore); purchased Merck Millipore
T1 sequence (P48730 1-294): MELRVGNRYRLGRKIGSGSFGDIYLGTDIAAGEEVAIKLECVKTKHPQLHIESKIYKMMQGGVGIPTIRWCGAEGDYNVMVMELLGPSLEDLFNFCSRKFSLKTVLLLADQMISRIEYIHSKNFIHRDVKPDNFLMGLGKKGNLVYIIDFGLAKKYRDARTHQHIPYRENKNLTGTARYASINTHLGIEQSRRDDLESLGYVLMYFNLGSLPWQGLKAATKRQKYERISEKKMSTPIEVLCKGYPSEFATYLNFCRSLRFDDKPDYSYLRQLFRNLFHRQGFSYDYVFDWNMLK
In words: CK1δ KinaseGlo luminescence enzymatic assay. Format: biochemical. To be noted: for remaining activity at 40 µM: ligand at 40 μM, mean of two independent experiments in duplicate, read-out: % CK1δ residual activity - fixed dose 40 μM; for IC50: mean of three independent experiments, 95% confidence limits in brackets, 4 μM ATP, 0.1% casein. The method, then:
Fragments were tested against CK1δ using a luminescent-based assay.
Compounds were evaluated towards CK1δ (aa 1-294, Merck Millipore, Frankfurter Strasse 250, Darmstadt, 64293, Germany) with the KinaseGlo® luminescence assay (Promega Corporation, 2800 Woods Hollow Road Madison, WI 53711, USA) following procedures reported in the literature. In detail, luminescent assays were performed in white 96-well plates, using the following buffer: 50 mM HEPES (pH 7.5),1 mM EDTA, 1 mM EGTA, and 15 mM MgCl2. […] In a typical assay, 10 μL of inhibitor solution (dissolved in DMSO at 10 mM concentration and diluted in assay buffer to the desired concentration) and 10 μL (16 ng) of enzyme solution were added to each well, followed by 20 μL of assay buffer containing 0.1% casein substrate and 4 μM ATP.
After 60 min of incubation at 30 °C, the enzymatic reactions were stopped with 40 μL of KinaseGlo® reagent (Promega). The luminescence signal (relative light unit, RLU) was recorded after 10 min at 25 °C using Tecan Infinite M100. […] Two independent experiments were performed in duplicate and the corresponding residual activity of CK1δ was obtained. Data were analyzed using Excel and reported as the mean of the two experiments with standard deviation. For IC50 determination ten different inhibitor concentrations ranging from 100 to0.026 μM were used and each point was assessedin duplicate. IC50 values are the mean of three independent experiments and 95% confidence limits were also reported. Data were analyzed using GraphPad Prism software (version 8.0).
A general note: In Kinase-Glo more light means more ATP remaining.

In assay [2] the target is CK1δ. On the set-up: method as in PMID 19825801. The conditions noted are these: cited from earlier work.
In another assay the target is ALK kinase. On the set-up: method as in PMID 19825801. The conditions noted are these: cited from earlier work.

Read-outs that look alike come from different tables or passages of the source.

The term Ki denotes a dissociation constant, usually derived from enzyme kinetics or from competition with a known ligand. Consider `O=C(Nc1n[nH]c2ccc(-c3cn(Cc4ccccc4)nn3)cc12)c1ccccc1` [CHEMBL1999931], for which the Ki on CK1δ [1] (multikinase inhibitor with 3-amino-indazole scaffold) is 0.316 µM. For `CSc1c[nH]c2ncnc(NCCCO)c12` [CHEMBL2000114], on CK1δ [1] (same kinome scan from Abbott Labs), the Ki was 1 µM. As a reminder, the IC50 is the concentration that gives 50% inhibition. In the case of `N#Cc1c(N)nsc1N1CCOCC1` [Compound 28], on CK1δ (aa 1-294), the remaining activity at 40 µM is 37.8% and it took 3.31 µM to reach half-maximal inhibition (IC50). Turning to `Nc1ncnc2sc3c(c12)CCCC3` [Compound 37], on CK1δ (aa 1-294), the remaining activity at 40 µM stood at 23.8% and half-maximal inhibition (IC50) required 12.7 µM. For `Nc1n[nH]c2cc(Cl)ccc12` [Compound 38], in that order: 24.4% and 20.5 µM. For `Cc1c(C)n(-c2cccnc2)c2ncnc(N)c12` [Compound 52], in that order: 28.3% and 13.5 µM. For `Nc1ncnc2nccc(O)c12` [Compound 59], in that order: 24.7% and 13.9 µM. Regarding `Nc1nsc(Nc2ccccc2)n1` [Compound 62], at CK1δ (aa 1-294), the remaining activity at 40 µM amounted to 28.1% and the IC50 amounted to 18.1 µM. For `Nc1n[nH]c2cccc(F)c12` [Compound 63], in that order: 35.4% and 24.9 µM.

Turning to `CNC(=O)c1c(F)cccc1Nc1nc(Nc2cc3c(cc2OC)CCN3C(=O)CN(C)C)nc2[nH]ccc12` [GSK1838705A], at CK1δ [2], the Ki is 3.5 µM. Besides, the IC50 at ALK kinase is […].

The values above are taken from PMC8471300, “A Computational Workflow for the Identification of Novel Fragments Acting as Inhibitors of the Activity of Protein Kinase CK1δ” (International Journal of Molecular Sciences, 2021).
